Test results reported in patent publication US10344054B2, “Angiotensin-1-receptor antagonists” (Ferring B.V., priority 2016, dated 2019).
pIC50: −log10 of the molar value. Starred links: 1 amine or outer side, 2 acyl side, 3 side chain; linkers in the order of their positions; H or OH if unused. Non-standard residues stand in square brackets, D forms with d. Residues, ends and D or L forms follow the SMILES beside them. X1 = O=C(CN(C[C@H](O)[C@@H](O)[C@H](O)[C@H](O)CO)[*:1])[*:2]; dPhe(2-Ph) = N[C@H](Cc1ccccc1-c1ccccc1)C(=O)O; dPhe(2-Cl) = N[C@H](Cc1ccccc1Cl)C(=O)O; dPhe(2-Me) = Cc1ccccc1C[C@@H](N)C(=O)O; Gly(cPent) = N[C@H](C(=O)O)C1CCCC1; Chg = N[C@H](C(=O)O)C1CCCCC1

Tests used:
hAT1R [1] = molecular target: T1, hAT1R (Homo sapiens, UniProt P30556); experiment: FLIPR calcium flux assay, Part I: agonist activity; format: cell-based; conditions: ChanTest hAT1R stable cells; % MPE, percent of the maximal possible effect; read-out: hAT1R Agonist Efficacy Agonist (%) Ave
T1 sequence (P30556 1-359): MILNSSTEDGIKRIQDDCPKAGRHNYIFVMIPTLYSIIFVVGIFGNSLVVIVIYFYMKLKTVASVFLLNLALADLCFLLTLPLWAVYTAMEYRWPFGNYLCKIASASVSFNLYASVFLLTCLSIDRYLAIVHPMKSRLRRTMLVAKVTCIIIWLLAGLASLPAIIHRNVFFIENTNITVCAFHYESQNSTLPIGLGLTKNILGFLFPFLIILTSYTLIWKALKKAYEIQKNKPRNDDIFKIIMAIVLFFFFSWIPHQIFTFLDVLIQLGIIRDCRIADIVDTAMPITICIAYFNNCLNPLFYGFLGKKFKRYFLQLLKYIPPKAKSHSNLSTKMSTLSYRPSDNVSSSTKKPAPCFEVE

hAT1R [2] = molecular target: T1, hAT1R; experiment: FLIPR calcium flux assay, Part II: antagonist activity against Angiotensin II; format: cell-based; conditions: for Emax: read-out: hAT1R Antagonist Efficacy Antag (%) Ave; for pIC50: read-out: hAT1R Antagonist IC50 Ave; on hAT1R Antagonist Efficacy Antag (%) Ave: Angiotensin II 10 nM final concentration

Emax (hAT1R [1]) [%]	Emax (hAT1R [2]) [%]	pIC50 (hAT1R [2])	SMILES
8	99	7.85	CNCC(=O)N[C@@H](CCCNC(=N)N)C(=O)N[C@H](C(=O)N[C@@H](Cc1ccc(O)cc1)C(=O)N[C@H](C(=O)N[C@@H](Cc1c[nH]cn1)C(=O)N1CCC[C@H]1C(=O)N[C@H](Cc1ccccc1Cl)C(=O)O)C1CCCCC1)C(C)C [Compound 19, Sar-Arg-Val-Tyr-Chg-His-Pro-(D-Phe(2-Cl))—OH] (HELM PEPTIDE1{[Sar].R.V.Y.[O=C([C@@H](N[*:1])C1CCCCC1)[*:2]].H.P.[O=C(O)[C@@H](Cc1ccccc1Cl)N[*:1]]}$$$$V2.0)
6	100	7.78	CC(C)[C@H](NC(=O)[C@H](CCCNC(=N)N)NC(=O)CNC[C@H](O)[C@@H](O)[C@H](O)[C@H](O)CO)C(=O)N[C@@H](Cc1ccc(O)cc1)C(=O)N[C@H](C(=O)N[C@@H](Cc1c[nH]cn1)C(=O)N1CCC[C@H]1C(=O)N[C@H](Cc1ccccc1Cl)C(=O)O)C1CCCC1 [Compound 43, Glac-Arg-Val-Tyr-Cpg-His-Pro-(D-Phe(2-Cl))—OH] (H-[X1]RVY[Gly(cPent)]HP[dPhe(2-Cl)]-OH)
6	100	7.65	Cc1ccccc1C[C@@H](NC(=O)[C@@H]1CCCN1C(=O)[C@H](Cc1c[nH]cn1)NC(=O)[C@@H](NC(=O)[C@H](Cc1ccc(O)cc1)NC(=O)[C@@H](NC(=O)[C@H](CCCNC(=N)N)NC(=O)CNC[C@H](O)[C@@H](O)[C@H](O)[C@H](O)CO)C(C)C)C1CCCCC1)C(=O)O [Compound 46, Glac-Arg-Val-Tyr-Chg-His-Pro-(D-Phe(2-Me))—OH] (H-[X1]RVY[Chg]HP[dPhe(2-Me)]-OH)
2	100	7.94	CC[C@H](C)[C@H](NC(=O)[C@H](Cc1ccc(O)cc1)NC(=O)[C@@H](NC(=O)[C@H](CCCNC(=N)N)NC(=O)CNC)C(C)C)C(=O)N[C@@H](Cc1c[nH]cn1)C(=O)N1CCC[C@H]1C(=O)N[C@H](Cc1ccccc1Cl)C(=O)O [Compound 25, Sar-Arg-Val-Tyr-Ile-His-Pro-(D-Phe(2-Cl))—OH]
12	100	7.69	CNCC(=O)N[C@@H](CCCNC(=N)N)C(=O)N[C@H](C(=O)N[C@@H](Cc1cccc(O)c1)C(=O)N[C@H](C(=O)N[C@@H](Cc1c[nH]cn1)C(=O)N1CCC[C@H]1C(=O)N[C@H](Cc1ccccc1Cl)C(=O)O)C(C)C)C(C)C [Compound 30, Sar-Arg-Val-(m-Tyr)-Val-His-Pro-(D-Phe(2-Cl))—OH] (HELM PEPTIDE1{[Sar].R.V.[O=C([C@H](Cc1cccc(O)c1)N[*:1])[*:2]].V.H.P.[O=C(O)[C@@H](Cc1ccccc1Cl)N[*:1]]}$$$$V2.0)
10	101	7.55	CC(C)[C@H](NC(=O)[C@H](CCCNC(=N)N)NC(=O)CNC[C@H](O)[C@@H](O)[C@H](O)[C@H](O)CO)C(=O)N[C@@H](Cc1ccc(O)cc1)C(=O)N[C@H](C(=O)N[C@@H](Cc1c[nH]cn1)C(=O)N1CCC[C@H]1C(=O)N[C@H](Cc1ccccc1-c1ccccc1)C(=O)O)C1CCCCC1 [Compound 42, Glac-Arg-Val-Tyr-Chg-His-Pro-(D-Phe(2-Ph))—OH] (H-[X1]RVY[Chg]HP[dPhe(2-Ph)]-OH)
5	99	7.91	CNCC(=O)N[C@@H](CCCNC(=N)N)C(=O)N[C@H](C(=O)N[C@@H](Cc1ccc(O)c(Cl)c1)C(=O)N[C@H](C(=O)N[C@@H](Cc1c[nH]cn1)C(=O)N1CCC[C@H]1C(=O)N[C@H](Cc1ccccc1Cl)C(=O)O)C(C)C)C(C)C [Compound 28, Sar-Arg-Val-Tyr(3-Cl)-Val-His-Pro-(D-Phe(2-Cl))—OH] (HELM PEPTIDE1{[Sar].R.V.[O=C([C@H](Cc1ccc(O)c(Cl)c1)N[*:1])[*:2]].V.H.P.[O=C(O)[C@@H](Cc1ccccc1Cl)N[*:1]]}$$$$V2.0)

Second part, the molecule before the results:

SMILES	Emax (hAT1R [1]) [%]	Emax (hAT1R [2]) [%]	pIC50 (hAT1R [2])
CNCC(=O)N[C@@H](CCCNC(=N)N)C(=O)N[C@H](C(=O)N[C@@H](Cc1ccc(O)cc1)C(=O)N[C@H](C(=O)N[C@@H](Cc1c[nH]cn1)C(=O)N1CCC[C@H]1C(=O)N[C@H](Cc1ccccc1Br)C(=O)O)C(C)C)C(C)C [Compound 11, Sar-Arg-Val-Tyr-Val-His-Pro-(D-Phe(2-Br))—OH] (HELM PEPTIDE1{[Sar].R.V.Y.V.H.P.[O=C(O)[C@@H](Cc1ccccc1Br)N[*:1]]}$$$$V2.0)	4	99	8.06
CNCC(=O)N[C@@H](CCCNC(=N)N)C(=O)N[C@H](C(=O)N[C@@H](Cc1ccc(O)cc1)C(=O)N[C@H](C(=O)N[C@@H](Cc1c[nH]cn1)C(=O)N1CCC[C@H]1C(=O)N[C@H](Cc1ccccc1Cl)C(=O)O)C1CCCC1)C(C)C [Compound 18, Sar-Arg-Val-Tyr-Cpg-His-Pro-(D-Phe(2-Cl))—OH] (HELM PEPTIDE1{[Sar].R.V.Y.[O=C([C@@H](N[*:1])C1CCCC1)[*:2]].H.P.[O=C(O)[C@@H](Cc1ccccc1Cl)N[*:1]]}$$$$V2.0)	3	99	8.00
CNCC(=O)N[C@@H](CCCNC(=N)N)C(=O)N[C@H](C(=O)N[C@@H](Cc1ccc(O)cc1)C(=O)N[C@@H](CC1CCCCC1)C(=O)N[C@@H](Cc1c[nH]cn1)C(=O)N1CCC[C@H]1C(=O)N[C@H](Cc1cccc2ccccc12)C(=O)O)C(C)C [Compound 14, Sar-Arg-Val-Tyr-Cha-His-Pro-(D-1Nal)-OH] (HELM PEPTIDE1{[Sar].R.V.Y.[Cha].H.P.[O=C(O)[C@@H](Cc1cccc2ccccc12)N[*:1]]}$$$$V2.0)	5	100	8.10
CNCC(=O)N[C@@H](CCCNC(=N)N)C(=O)N[C@H](C(=O)N[C@@H](Cc1ccc(O)cc1)C(=O)N[C@H](C(=O)N[C@@H](Cc1c[nH]cn1)C(=O)N1CCC[C@H]1C(=O)N[C@H](Cc1ccc(Cl)cc1Cl)C(=O)O)C(C)C)C(C)C [Compound 7, Sar-Arg-Val-Tyr-Val-His-Pro-(D-Phe(2,4-diCl))—OH] (HELM PEPTIDE1{[Sar].R.V.Y.V.H.P.[O=C(O)[C@@H](Cc1ccc(Cl)cc1Cl)N[*:1]]}$$$$V2.0)	12	99	8.19
